Source: patent US6869977B1, “Skin moisturization compound” (Colonial Chemical Inc., priority 2004, dated 2005)

System: skin
Details: for Rating: 5% sample applied to skin, scale of 1 to 5, 1 being poor and 5 being best
Text: The effect of moisturization can be measured by the appearance of the skin when treated. Untreated skin that is in need of moisturization is rough, scaly and dry looking under the dissection microscope. The application of the moisturization solution to the skin and its effect upon minimizing roughness, scaling and dry appearance is a good measure of moisturization. We performed such an evaluation and rated the performance of a scale of 1 to 5.1 being poor and 5 being best.

Row | Structure (SMILES) | Rating | moisturization effect in words (applied to rough dry skin)
1 | OCC(O)CO [Glycerin] | 2 | –
2 | C[N+](C)(C)CCO [Choline] | 4 | –
3 | C[N+](C)(CCO)CC(O)CO.[Cl-] (stereo not shown) [Example 3] | 5 | very effective moisturization agent
